According to ChEMBL document CHEMBL6182832, “Design and synthesis of coumarin-based amphoteric antimicrobials with biofilm interference and immunoregulation effects” (RSC Med Chem, 2025):
In brackets after ≈: the same amount, converted by molar mass. Activity calls are given as the source filed them. The calls are words filed in the database; no cut-off is given here.

How the values were obtained:
[1] = In vivo toxicity in KM mouse assessed as survival rate at 15 mg/kg, sc relative to control; format: organism-based
Escherichia coli [2] = assay: Antibacterial activity against clinically isolated Escherichia coli DE17 assessed as inhibition of bacterial growth measured after 16 to 24 hrs by broth microdilution method; format: functional; conditions: time 16-24 hrs, read-out: MIC100
Staphylococcus aureus [3] = assay: Anti-biofilm activity against clinically isolated Staphylococcus aureus ATCC29213 assessed inhibition of biofilm formation at 2 ug/ml measured after 12 to 16 hrs incubation by crystal violet staining based analysis; format: functional; conditions: time 12-16 hrs
[4] = In vivo toxicity in KM mouse assessed as creatinine (CREA) in blood collected from eyes of mouse at 15 mg/kg, sc; format: organism-based
[5] = In vivo toxicity in KM mouse assessed as platelet count (PLT) in blood collected from eyes of mouse at 15 mg/kg, sc; format: organism-based
[6] = Hemolytic activity in rabbit erythrocytes assessed as hemolysis at >8 ug/ml; format: toxicity, cell-based, Oryctolagus cuniculus; conditions: erythrocyte, dose > 8 µg/ml
Escherichia coli [7] = assay: Anti-biofilm activity against clinically isolated Escherichia coli DE17 assessed inhibition of biofilm formation at 0.5 to 128 ug/ml measured after 12 to 16 hrs incubation by crystal violet staining based analysis; format: functional, organism-based; conditions: dose 0.5-128 µg/ml, time 12-16 hrs
[8] = In vivo toxicity in KM mouse assessed as survival rate at 40 mg/kg, sc relative to control; format: organism-based
[9] = In vivo toxicity in KM mouse assessed as white blood cells (WBC) in blood collected from eyes of mouse at 15 mg/kg, sc; format: organism-based
Enterococcus faecalis = assay: Antibacterial activity against clinically isolated Enterococcus faecalis ATCC29212 assessed as inhibition of bacterial growth measured after 16 to 24 hrs by broth microdilution method; format: functional; conditions: time 16-24 hrs, read-out: MIC100
Bacillus subtilis = assay: Antibacterial activity against clinically isolated Bacillus subtilis ATCC6633 assessed as inhibition of bacterial growth measured after 16 to 24 hrs by broth microdilution method; format: functional; conditions: time 16-24 hrs, read-out: MIC100
[10] = In vivo toxicity in KM mouse assessed as survival rate at 5 mg/kg, sc relative to control; format: organism-based
[11] = In vivo toxicity in KM mouse assessed as survival rate at 10 mg/kg, sc relative to control; format: organism-based
Staphylococcus aureus [12] = assay: Biofilm eradication activity against Staphylococcus aureus ATCC29213 assessed biofilm scavenging at 2 ug/ml measured after 12 to 16 hrs incubation by crystal violet staining based analysis; format: functional, organism-based; conditions: dose 2.0 µg/ml, time 12-16 hrs
Bacillus cereus = assay: Antibacterial activity against clinically isolated Bacillus cereus CMCC63303 assessed as inhibition of bacterial growth measured after 16 to 24 hrs by broth microdilution method; format: functional; conditions: time 16-24 hrs, read-out: MIC100
Staphylococcus aureus [13] = assay: In vivo antibacterial activity against clinically isolated Staphylococcus aureus ATCC29213 infected KM mouse skin abscess model assessed as aggregation of inflammatory cells into epidermis and dermis of skin at 5 mg/kg, sc measured after 24 hrs by Hematoxylin and Eosin staining based analysis; format: functional, organism-based
Staphylococcus aureus [14] = assay: In vivo antibacterial activity against clinically isolated Staphylococcus aureus ATCC29213 infected KM mouse skin abscess model assessed as decrease in bacterial load in skin at 5 mg/kg, sc measured after 24 hrs by Hematoxylin and Eosin staining based analysis; format: functional, organism-based
Staphylococcus aureus [15] = assay: In vivo antibacterial activity against clinically isolated Staphylococcus aureus ATCC29213 infected KM mouse skin abscess model assessed as reduction in size of abscess in dorsal skin and intradermal tissue at 5 mg/kg, sc measured after 24 hrs by Hematoxylin and Eosin staining based analysis; format: functional, organism-based
Staphylococcus aureus [16] = assay: Anti-biofilm activity against clinically isolated Staphylococcus aureus ATCC29213 assessed inhibition of biofilm formation at 0.5 to 128 ug/ml measured after 12 to 16 hrs incubation by crystal violet staining based analysis; format: functional, organism-based; conditions: dose 0.5-128 µg/ml, time 12-16 hrs
Staphylococcus aureus [17] = assay: Antibacterial activity against clinically isolated Staphylococcus aureus ATCC29213 assessed as inhibition of bacterial growth at 2 times of MIC measured after 18 hrs by broth microdilution method; format: functional
[18] = In vivo toxicity in KM mouse assessed as survival rate at 20 mg/kg, sc relative to control; format: organism-based
[19] = In vivo toxicity in KM mouse assessed as hemoglobin (HGB) in blood collected from eyes of mouse at 15 mg/kg, sc; format: organism-based
Staphylococcus aureus [20] = assay: In vivo antibacterial activity against clinically isolated Staphylococcus aureus ATCC29213 infected KM mouse skin abscess model assessed as decrease in bacterial survival in skin at 5 mg/kg, sc measured after 24 hrs by Hematoxylin and Eosin staining based analysis; format: functional, organism-based
Escherichia coli [21] = assay: Biofilm eradication activity against Escherichia coli DE17 assessed biofilm scavenging at 8 ug/ml measured after 12 to 16 hrs incubation by crystal violet staining based analysis; format: functional, organism-based; conditions: dose 8.0 µg/ml, time 12-16 hrs
Escherichia coli [22] = assay: Anti-biofilm activity against clinically isolated Escherichia coli DE17 assessed inhibition of biofilm formation at 16 ug/ml measured after 12 to 16 hrs incubation by crystal violet staining based analysis; format: functional; conditions: time 12-16 hrs
Listeria monocytogenes = assay: Antibacterial activity against clinically isolated Listeria monocytogenes CICC21662 assessed as inhibition of bacterial growth measured after 16 to 24 hrs by broth microdilution method; format: functional; conditions: time 16-24 hrs, read-out: MIC100
[23] = In vivo toxicity in KM mouse assessed as hematocrit (HCT) in blood collected from eyes of mouse at 15 mg/kg, sc; format: organism-based
[24] = In vivo toxicity in KM mouse assessed as albumin (ALB) in blood collected from eyes of mouse at 15 mg/kg, sc; format: organism-based
Escherichia coli [25] = assay: Antibacterial activity against clinically isolated Escherichia coli ATCC25922 assessed as inhibition of bacterial growth measured after 16 to 24 hrs by broth microdilution method; format: functional; conditions: time 16-24 hrs, read-out: MIC100
Staphylococcus aureus [26] = assay: Antibacterial activity against clinically isolated methicillin-resistant Staphylococcus aureus assessed as inhibition of bacterial growth measured after 16 to 24 hrs by broth microdilution method; format: functional; conditions: time 16-24 hrs, read-out: MIC100
[27] = In vivo toxicity in KM mouse assessed as redness and swelling skin at site of compound administration at 20 to 40 mg/kg, sc; format: organism-based; conditions: dose 20-40 mg/kg
Staphylococcus aureus [28] = assay: Anti-biofilm activity against clinically isolated Staphylococcus aureus ATCC29213 assessed inhibition of biofilm formation at 4 ug/ml measured after 12 to 16 hrs incubation by crystal violet staining based analysis; format: functional; conditions: time 12-16 hrs
[29] = In vivo toxicity in KM mouse assessed as urea (UREA) in blood collected from eyes of mouse at 15 mg/kg, sc; format: organism-based
Staphylococcus aureus [30] = assay: Antibacterial activity against clinically isolated Staphylococcus aureus ATCC29213 assessed as inhibition of bacterial growth at 1/2 times of MIC measured after 24 consecutive passages by broth microdilution method; format: functional, organism-based
Staphylococcus aureus [31] = assay: Antibacterial activity against clinically isolated Staphylococcus aureus ATCC29213 assessed as inhibition of bacterial growth measured after 16 to 24 hrs by broth microdilution method; format: functional; conditions: time 16-24 hrs, read-out: MIC100
[32] = In vivo toxicity in KM mouse assessed as mean corpuscular volume (MCV) in blood collected from eyes of mouse at 15 mg/kg, sc; format: organism-based
RAW264.7 = assay: Anti-inflammatory activity against mouse RAW264.7 cells assessed as inhibition LPS-stimulated NO production 0.5 to 4 ug/ml measured after 24 hrs by NO assay kit; format: functional, cell-based; conditions: dose 0.5-4 µg/ml
[33] = In vivo toxicity in KM mouse assessed as red blood cells (RBC) in blood collected from eyes of mouse at 15 mg/kg, sc; format: organism-based
Escherichia coli [34] = assay: Anti-biofilm activity against clinically isolated Escherichia coli DE17 assessed inhibition of biofilm formation at 8 ug/ml measured after 12 to 16 hrs incubation by crystal violet staining based analysis; format: functional; conditions: time 12-16 hrs
Staphylococcus aureus [35] = assay: Resistance index, ratio of MIC100 for antibacterial activity against clinically isolated Staphylococcus aureus ATCC29213 assessed as inhibition of bacterial growth at 1/2 times of MIC measured after 24 consecutive passages to MIC100 for antibacterial activity against clinically isolated Staphylococcus aureus ATCC29213; format: functional

CCN(CC)CCCCCCCCCCCCOc1ccc2ccc(=O)oc2c1
survival [1]: 100%
MIC (Escherichia coli [2]): > 256 µg/mL
inhibition at 2 µg/mL (Staphylococcus aureus [3]): 100%
Activity [4]: Non-toxic
Activity [5]: Non-toxic
Activity [6]: Toxic
Activity (Escherichia coli [7]): Dose-dependent-effect
survival [8]: 100%
Activity [9]: Non-toxic
MIC (Enterococcus faecalis): 4 µg/mL (≈ 9.96 µM)
MIC (Bacillus subtilis): 1 µg/mL (≈ 2.49 µM)
survival [10]: 100%
survival [11]: 100%
Activity (Staphylococcus aureus [12]): Active
MIC (Bacillus cereus): 4 µg/mL (≈ 9.96 µM)
Activity (Staphylococcus aureus [13]): Active
Activity (Staphylococcus aureus [14]): Active
Activity (Staphylococcus aureus [15]): Active
Activity (Staphylococcus aureus [16]): Dose-dependent-effect
inhibition (INH) (Staphylococcus aureus [17]): 100%
survival [18]: 100%
Activity [19]: Non-toxic
Activity (Staphylococcus aureus [20]): Active
Activity (Escherichia coli [21]): Active
inhibition at 16 µg/mL (Escherichia coli [22]): 100%
MIC (Listeria monocytogenes): 2 µg/mL (≈ 4.98 µM)
Activity [23]: Non-toxic
Activity [24]: Non-toxic
MIC (Escherichia coli [25]): > 256 µg/mL
MIC (Staphylococcus aureus [26]): 2 µg/mL (≈ 4.98 µM)
Activity [27]: Toxic
inhibition at 4 µg/mL (Staphylococcus aureus [28]): 100%
Activity [29]: Non-toxic
Activity (Staphylococcus aureus [30]): Active
MIC (Staphylococcus aureus [31]): 1 µg/mL (≈ 2.49 µM)
Activity [32]: Non-toxic
Activity (RAW264.7): Active
Activity [33]: Non-toxic
inhibition at 8 µg/mL (Escherichia coli [34]): 100%

Cc1onc(-c2ccccc2)c1C(=O)N[C@@H]1C(=O)N2[C@@H]1SC(C)(C)[C@@H]2C(=O)O [OXACILLIN]
Ratio (Staphylococcus aureus [35]): 8
